Results reported in article PMC11854949, “Discovery of Novel Pyridin-2-yl Urea Inhibitors Targeting ASK1 Kinase and Its Binding Mode by Absolute Protein–Ligand Binding Free Energy Calculations” (International Journal of Molecular Sciences, 2025).

Target: T1, recombinant human ASK1 protein (catalytic domain, residues 659–951) (Homo sapiens, UniProt Q99683)
T1 construct: The catalytic domain of ASK1 (encoding residues 659–951) was modified to include an N-terminal 6XHis tag; 6XHis (N); made in house; host or cells: E. coli Rosetta2 (DE3)
Test: ASK1 enzyme inhibition assay (ADP-Glo)
Format: biochemical
Conditions: for ΔGexp: estimated from IC50 using ΔG = RTln(IC50), 298 K; for IC50: mean ± SEM, n = 3 experiments, 25 μM ATP, 0.1 μg/μL MBP, ADP-Glo
Description: The recombinant human ASK1 protein was expressed in E. coli Rosetta2 (DE3) in LB medium, containing 100 µg/mL ampicillin and 34 µg/mL chloramphenicol. A total of 2 mL overnight culture was diluted 100-fold into 200 mL LB and grown at 37 °C with shaking at 200 rpm until the OD600 reached 0.8. Subsequently, 0.5 mM IPTG was added, and protein expression was induced overnight at 20 °C.
The IC50 value for each inhibitor was determined using the ADP-Glo™ protocol. Inhibitors were prepared as a series of 1:1 serial dilutions (final concentration of 10 μM) in 40 mM HEPES buffer (pH 7.5) containing 20 mM MgCl2, 0.1 mg/mL BSA, 50 μM DTT and 5% DMSO.
The reaction was terminated by adding 5 μL of ADP-Glo reagent and incubated at room temperature for 40 min. Then, 10 μL of kinase detection reagent was added, and the mixture was incubated for an additional 30 min. Luminescence was measured using a VICTOR Nivo microplate reader (PerkinElmer, Waltham, MA, USA), and the concentration–response curve and half-maximal inhibitory concentration (IC50) values were obtained by fitting the data using GraphPad Prism (v.9.0) software.

T1 sequence (Q99683 659-951): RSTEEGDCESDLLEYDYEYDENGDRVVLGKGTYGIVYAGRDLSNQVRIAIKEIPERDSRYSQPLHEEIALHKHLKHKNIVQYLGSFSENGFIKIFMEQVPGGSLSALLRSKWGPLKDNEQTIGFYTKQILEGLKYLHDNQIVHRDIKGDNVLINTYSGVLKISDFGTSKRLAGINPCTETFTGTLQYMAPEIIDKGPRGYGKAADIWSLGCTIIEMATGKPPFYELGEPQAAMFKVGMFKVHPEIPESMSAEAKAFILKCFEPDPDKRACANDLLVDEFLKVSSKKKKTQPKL

| Structure (SMILES) | ΔGexp [kcal/mol] | IC50 [nM] |
| --- | --- | --- |
| CC(C)n1cnnc1-c1cccc(NC(=O)N2CCc3ccc(OC(F)(F)F)cc32)n1 [Compound 3] | -8.21 ± 0.01 | 954 ± 21.5 |
| CC(C)n1cnnc1-c1cccc(NC(=O)N2CCc3ccccc3C2)n1 [Compound 7] | -7.21 ± 0.06 | 5110 ± 507 |
| CC(C)n1cnnc1-c1cccc(NC(=O)N2CCCc3ccccc32)n1 [Compound 6] | -11.64 ± 0.06 | 2.92 ± 0.28 |
| COc1ccc2c(c1)CCN2C(=O)Nc1cccc(-c2nncn2C(C)C)n1 [Compound 4] | -10.01 ± 0.07 | 45.3 ± 4.82 |
| CC(C)n1cnnc1-c1cccc(NC(=O)N2CCc3cc(C(F)(F)F)ccc32)n1 [Compound 5] | -8.85 ± 0.02 | 319 ± 10.9 |
| CC(C)n1cnnc1-c1cccc(NC(=O)N2CCCC2)n1 [Compound 1] | -7.41 ± 0.01 | 3630 ± 72.2 |
| COc1ccc2c(c1)N(C(=O)Nc1cccc(-c3nncn3C(C)C)n1)CC2 [Compound 2] | -12.02 ± 0.11 | 1.55 ± 0.27 |
